In ChEMBL document CHEMBL4052728, “Diaminopimelic acid (DAP) analogs bearing isoxazoline moiety as selective inhibitors against meso-diaminopimelate dehydrogenase (m-Ddh) from Porphyromonas gingivalis” (Bioorg Med Chem Lett, 2017):
Values after ≈ are worked out from the molar mass of the structure shown. Active and inactive are the calls of the source. No cut-off for these calls is given here.

Experiments:
[1] = target: T1, Meso-diaminopimelate D-dehydrogenase (Porphyromonas gingivalis (strain ATCC BAA-308 / W83)) (UniProt Q7MW40); assay: Inhibition of Porphyromonas gingivalis m-Ddh expressed in Escherichia coli BL21 (DE3) pLysS up to 1 mM at pH 7.8 using meso-diaminopimelate as substrate by spectrophotometric method
T1 sequence (whole entry): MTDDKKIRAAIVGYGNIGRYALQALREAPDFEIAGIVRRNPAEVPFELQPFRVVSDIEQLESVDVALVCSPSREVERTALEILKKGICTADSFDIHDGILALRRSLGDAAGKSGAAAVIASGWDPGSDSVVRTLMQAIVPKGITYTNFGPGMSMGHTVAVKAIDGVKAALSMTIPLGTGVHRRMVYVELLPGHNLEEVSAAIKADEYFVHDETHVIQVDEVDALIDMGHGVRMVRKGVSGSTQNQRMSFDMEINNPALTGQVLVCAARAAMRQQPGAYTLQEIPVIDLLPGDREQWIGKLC

[2] = target: T1, Meso-diaminopimelate D-dehydrogenase (Porphyromonas gingivalis (strain ATCC BAA-308 / W83)); assay: Inhibition of Porphyromonas gingivalis m-Ddh expressed in Escherichia coli BL21 (DE3) pLysS up to 3 mM at pH 10.5 using meso-diaminopimelate as substrate by spectrophotometric method
[3] = system: Porphyromonas gingivalis; assay: Antibacterial activity against Porphyromonas gingivalis W83 after 24 hrs by broth microdilution method; assay type: functional; details: W83, 24 h
[4] = target: T2, Meso-diaminopimelate D-dehydrogenase (Porphyromonas gingivalis (strain ATCC BAA-308 / W83), UniProt Q7MW40); assay: Inhibition of Porphyromonas gingivalis m-Ddh expressed in Escherichia coli BL21 (DE3) pLysS at pH 10.5 using meso-diaminopimelate as substrate by spectrophotometric method
T2 sequence (Q7MW40 whole entry): T1 sequence (whole entry)

[5] = target: T2, Meso-diaminopimelate D-dehydrogenase; assay: Inhibition of Porphyromonas gingivalis m-Ddh expressed in Escherichia coli BL21 (DE3) pLysS at pH 7.8 using meso-diaminopimelate as substrate by spectrophotometric method
[6] = system: Fusobacterium nucleatum; assay: Growth inhibition of Fusobacterium nucleatum ATCC 25586 up to 3 mM after 24 hrs by broth microdilution method
[7] = system: Staphylococcus aureus; assay: Growth inhibition of Staphylococcus aureus N315 up to 3 mM after 24 hrs by broth microdilution method
[8] = system: Porphyromonas gingivalis; assay: Antibacterial activity against Porphyromonas gingivalis ATCC 33277 after 24 hrs by broth microdilution method; assay type: functional; details: ATCC 33277, 24 h

N[C@@H](C[C@@H]1CC(C(=O)O)=NO1)C(=O)O
inhibition [1]: inactive
inhibition [2]: inactive

N[C@@H](C[C@H]1CC(C(=O)O)=NO1)C(=O)O
MIC [3]: 773 µM (≈ 156 µg/mL)
IC50 [4]: 211 µM
IC50 [5]: 14.9 µM
growth inhibition (GI) [6]: Non-Toxic
growth inhibition (GI) [7]: Non-Toxic
MIC [8]: 1880 µM (≈ 379 µg/mL)
